Assay type in all cases: biochemical
The target of experiment [1] is T1, human neutrophil collagenase (MMP-8) catalytic domain (Homo sapiens, UniProt P22894).
T1 construct: catalytic domain of human stromelysin (MMP 3) and neutrophil collagenase (MMP8); made in house
Briefly: Enzymatic activity of the catalytic domain of human neutrophil collagenase (MMP 8), fluorogenic substrate. As to conditions: Table 2; pH 7.5. As to the method:
(§1) Preparation and determination of the enzymatic activity of the catalytic domain of human stromelysin (MMP 3) and neutrophil collagenase (MMP8).
(§2) The two enzymes—stromelysin (MMP-3) and neutrophil collagenase (MMP-8)—were prepared as described by Ye et al. (Biochemistry; 31 (1992) pages 11231-11235). To measure the enzymic activity or the enzyme inhibitory effect, 70 μl of buffer solution and 10 μl of enzyme solution are incubated at physiological pH with 10 μl of a 10% strength (v/v) aqueous dimethyl sulfoxide solution which optionally contains the enzyme inhibitor for 15 minutes. After addition of 10 μl of a 10% strength (v/v) aqueous dimethyl sulfoxide solution which contains 1 mmol/l of the substrate, the enzymic reaction is followed by fluorescence spectroscopy (328 nm (ex)/393 nm(em)).
(§3) The enzymic activity is represented as increase in extinction/minute. The IC50 values listed in table 2 are measured as the inhibitor concentrations leading in each case to 50% inhibition of the enzyme.
(§4) The buffer solution contains 0.05% Brij (Sigma, Deisenhofen, Germany) and 0.1 mol/l Tris/HCl, 0.1 mol/l NaCl, 0.01 mol/l CaCl2 and 0.1 mol/l piperazine-N,N′-bis[2-ethanesulfonic acid] (pH=7.5).
(§5) The enzyme solution contains 5 μg/ml of one of the enzyme domains prepared as described by Ye et al. The substrate solution contains 1 mmol/l of the fluorogenic substrate (7-methoxycoumarin-4-yl)acetyl-Pro-Leu-Gly-Leu-3-(2,4-dinitrophenyl)-L-2,3-diaminopropionyl-Ala-Arg-NH2 (Bachem, Heidelberg, Germany).

The target in experiment [2] is T2, human collagenase 3 (MMP-13) catalytic domain (Homo sapiens, UniProt P45452).
T2 construct: catalytic domain of human collagenase 3 (MMP-13); purchased INVITEK, Berlin 30 100 803
In words: Enzymatic activity of the catalytic domain of human collagenase 3 (MMP-13), fluorogenic substrate. How it is done:
Determination of the enzymatic activity of the catalytic domain of human collagenase 3 (MMP-13).
Activation of the proenzyme:
2 parts by volume of proenzyme are incubated with 1 part by volume of APMA solution at 37° C. for 1.5 hours. The APMA solution is prepared from a 10 mmol/L
p-aminophenylmercuric acetate solution in […] by dilution with 3 parts by volume of Tris/HCl buffer pH7.5 (see below). The pH is adjusted to between 7.0 and 7.5 by adding 1 mmol/L HCl. After activation of the enzyme it is diluted with the Tris/HCl buffer to a concentration of 1.67 μg/mL.
To measure the enzymic activity, 10 μL of enzyme solution are incubated with 10 μL of a 3% strength (v/v) buffered dimethyl sulfoxide solution (reaction 1) for 15 minutes. To measure the enzyme inhibitory activity, 10 μL of enzyme solution are incubated with 10 μL of a 3% strength (v/v) buffered dimethyl sulfoxide solution which contains the enzyme inhibitor (reaction 2).
The enzymic reaction both in reaction 1 and in reaction 2 is followed, after addition of 10 μL of a 3% strength (v/v) aqueous dimethyl sulfoxide solution which contains 0.75 mmol/L of the substrate, by fluorescence spectroscopy (328 nm (extinction)/393 nm(emission)).
The enzymic activity is represented as increase in extinction/minute.
The inhibitory effect is calculated as percentage inhibition by the following formula:
% inhibition=100−[(increase in extinction/minute in reaction 2)/(increase in extinction/minute in reaction 1)×100].
The IC50, i.e. the inhibitor concentration necessary for 50% inhibition of enzymic activity, is found by plotting a graph of the percentage inhibitions at various inhibitor concentrations.
The buffer solution contains 0.05% Brij (Sigma, Deisenhofen, Germany) and 0.1 mol/L Tris/HCl, 0.1 mol/L NaCl, 0.01 mol/L CaCl2 (pH=7.5).
The enzyme solution contains 1.67 μg/mL of the enzyme domain.
The substrate solution contains 0.75 mmol/L of the fluorogenic substrate (7-methoxycoumarin-4-yl)acetyl-Pro-Leu-Gly-Leu-3-(2,4-dinitrophenyl)-L-2,3-diaminopropionyl-Ala-Arg-NH2 (Bachem, Heidelberg, Germany).

The target in experiment [3] is T3, human stromelysin (MMP-3) catalytic domain (Homo sapiens, UniProt P08254).
T3 construct: catalytic domain of human stromelysin (MMP 3); made in house
Briefly: Enzymatic activity of the catalytic domain of human stromelysin (MMP 3), fluorogenic substrate. As to conditions: Table 2; pH 7.5. As to the method: as §1, §2, §3, §4, §5

Where [4] appears, read: Table 2, pH 7.5, read-out: MMP 13 IC50.
The mark [5] stands for this setting: Table 3, comparative examples, determination as described above, read-out: MMP 13.

13 compounds from patent publication US6716853B2, “Cyclic N-substituted alpha-imino carboxylic acids for selective inhibition of collogenase” (Aventis Pharma Deutschland GmbH, priority 2002, dated 2004) can be followed below.

SMILES strings stand for the structures. Like-named read-outs stand apart in the source and are kept apart here. A value given as a limit tells only on which side of the number the result lay.

T3 sequence (P08254 100-272 limits assumed): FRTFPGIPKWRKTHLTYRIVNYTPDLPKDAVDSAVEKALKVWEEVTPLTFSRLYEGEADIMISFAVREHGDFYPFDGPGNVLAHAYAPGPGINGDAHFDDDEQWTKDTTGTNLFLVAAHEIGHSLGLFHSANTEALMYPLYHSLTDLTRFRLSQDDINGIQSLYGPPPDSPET
T1 sequence (P22894 100-262 limits assumed): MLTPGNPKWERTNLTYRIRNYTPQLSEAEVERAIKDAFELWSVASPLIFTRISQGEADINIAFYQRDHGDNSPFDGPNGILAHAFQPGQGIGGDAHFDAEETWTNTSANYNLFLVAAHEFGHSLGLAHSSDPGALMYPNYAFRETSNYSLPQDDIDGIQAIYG

For `CC(C)COC(=O)Nc1ccc(-c2ccc(S(=O)(=O)N3Cc4ncn(C)c4C[C@@H]3C(=O)O)cc2)cc1` [Example 9], the IC50 in experiment [1] was 200 nM; in experiment [2] (setting [4]), 60 nM.

On to `Cn1cnc2c1C[C@H](C(=O)O)N(S(=O)(=O)c1ccc(-c3ccc(NC(=O)OCC4CC4)cc3)cc1)C2` [Example 10], for which the results for the IC50 in experiment [3], in experiment [1] and in experiment [2] (setting [4]) were more than 10000 nM, 700 nM and 20 nM, respectively.

As to `CN(C)c1ccc(-c2ccc(S(=O)(=O)N3Cc4ccccc4C[C@@H]3C(=O)O)cc2)cc1` [Example 39, reference compound], the IC50 in experiment [2] (setting [5]) was 2.9 nM.

Regarding `Cn1cnc2c1C[C@H](C(=O)O)N(S(=O)(=O)c1ccc(-c3ccc(NC(=O)OCC(C)(C)C)cc3)cc1)C2` [Example 8], the IC50 is more than 10000 nM in experiment [3], 5000 nM in experiment [1] and 70 nM in experiment [2] (setting [4]).

As for `O=C(O)[C@H]1Cc2ccccc2CN1S(=O)(=O)c1ccc(-c2ccccc2)cc1` [Example 34, reference compound], the IC50 in experiment [2] (setting [5]) stood at 50 nM.

As for `CC(C)OC(=O)Nc1ccc(-c2ccc(S(=O)(=O)N3Cc4ccccc4C[C@@H]3C(=O)O)cc2)cc1` [Example 2, 2-(4′-Isopropoxycarbonylaminobiphenyl-4-sulfonyl)-1,2,3,4-tetrahydroisocquinoline-3-(R)-carboxylic acid], the IC50 in experiment [3] was found to be 3000 nM; in experiment [1], 6000 nM; in experiment [2] (setting [4]) it was 30 nM.

Consider `CC(C)OC(=O)Nc1ccc(-c2ccc(S(=O)(=O)N3Cc4ncn(C)c4C[C@@H]3C(=O)O)cc2)cc1` [Example 6], for which the figures for the IC50 in experiment [1] and in experiment [2] (setting [4]) were 4000 nM and 80 nM, respectively.

Take `CC(C)COC(=O)Nc1ccc(-c2ccc(S(=O)(=O)N3Cc4ccccc4C[C@@H]3C(=O)O)cc2)cc1` [Example 4]: the IC50 in experiment [3] amounted to 2000 nM; in experiment [1] it was 3000 nM; in experiment [2] (setting [4]), 20 nM.

On to `CCOC(=O)Nc1ccc(-c2ccc(S(=O)(=O)N3Cc4ccccc4C[C@@H]3C(=O)O)cc2)cc1` [Example 1], for which the IC50 came out at 3000 nM in experiment [3], 2300 nM in experiment [1] and 40 nM in experiment [2] (setting [4]).

`O=C(O)[C@H]1Cc2ccccc2CN1S(=O)(=O)c1ccc(-c2ccc(Cl)cc2)cc1` [Example 35, reference compound]: the IC50 in experiment [2] (setting [5]) stood at 30 nM.

In the case of `O=C(Nc1ccc(-c2ccc(S(=O)(=O)N3Cc4ccccc4C[C@@H]3C(=O)O)cc2)cc1)OCC1CC1` [Example 5], the IC50 in experiment [3] amounted to 3000 nM; in experiment [1], 4000 nM; in experiment [2] (setting [4]) it was 20 nM.

Take `Cn1cnc2c1C[C@H](C(=O)O)N(S(=O)(=O)c1ccc(-c3ccc(NC(=O)OCc4ccccc4)cc3)cc1)C2` [Example 7]: the IC50 in experiment [3] is more than 10000 nM; in experiment [1], 1000 nM; in experiment [2] (setting [4]) it was 60 nM.

For `CCCCCCOC(=O)Nc1ccc(-c2ccc(S(=O)(=O)N3Cc4ccccc4C[C@@H]3C(=O)O)cc2)cc1` [Example 3], the values for the IC50 in experiment [3], in experiment [1] and in experiment [2] (setting [4]) were more than 10000 nM, 2000 nM and 70 nM, respectively.
